Measurements from patent US7511145B2 (Genelabs Technologies, Inc., priority 2003, dated 2009).

Biological target: T1, HCV-NS5b (Hepatitis C virus genotype 1b, UniProt Q9WMX2)
T1 construct: (His)6 (C); made in house; host or cells: XL-1 cells (E. coli), IPTG-inducible plasmid, nickel-NTA purification
Test: HCV-NS5b enzyme assay (incorporation of radiolabeled UTP)
Format: biochemical
Conditions: for inhibition at 100 µM: read-out: % inh@100, enzyme inhibition at compound concentration of 100 uM
How it was run: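 Percent inhibition, background-corrected against uninhibited control, was measured at 100 and 33 uM compound. Incorporation of [3H]-UTP (10 μM each NTP) into biotinylated HCV-template RNA, 37° C for 2 h, pH 7.5, scintillation proximity. Enzyme: C-terminally truncated (21 aa), His6-tagged NS5b from XL-1.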

[1] = enzyme inhibition at compound concentration of 33 uM

SMILES	inhibition at 33 µM [1] [%]	inhibition at 100 µM [%]	% inh@33 [1] [%]	% inh@100 (enzyme inhibition at compound concentration of 100 uM) [%]
O=C(O)c1ccc2c(c1)nc(-c1ccc3nc(C(=O)Nc4ccc(Cl)cc4)ccc3c1)n2C1CCCCC1 [Compound 510, 2-[2-(4-Chlorophenylcarbamoyl)quinolin-6-yl]-1-cyclohexyl-1H-benzimidazole-5-carboxylic acid]	99.5	100		
CC(C)[C@H](NC(=O)c1ccc2cc(-c3nc4cc(C(=O)O)ccc4n3C3CCCCC3)ccc2n1)C(N)=O [Compound 511, 2-[2-(1-Carbamoyl-2-methylpropylcarbamoyl)quinolin-6-yl]-1-cyclohexyl-1H-benzimidazole-5-carboxylic acid]	78.4	95		
C[C@@H](O)[C@H](NC(=O)c1ccc2c(c1)nc(-c1ccc3nc(-c4ccccc4)cnc3c1)n2C1CCCCC1)C(=O)O [Compound 512, 2-{[1-Cyclohexyl-2-(2-phenyl-quinoxalin-6-yl)-1H-benzoimidazole-5-carbonyl]-amino}-3-hydroxy-butyric acid]	78.9	97.9		
CC(C)C[C@H](NC(=O)c1ccc2c(c1)nc(-c1ccc3nc(-c4ccccc4)cnc3c1)n2C1CCCCC1)C(=O)O [Compound 513, 2-{[1-Cyclohexyl-2-(2-phenyl-quinoxalin-6-yl)-1H-benzoimidazole-5-carbonyl]-amino}-4-methyl-pentanoic acid]	93.2	95.9		
O=C(c1ccc2c(c1)nc(-c1cc3ccc(-c4ccccc4-c4ccc(Cl)cc4)nc3cc1F)n2C1CCCCC1)N1CCC(O)CC1 [Compound 514, {2-[2-(4′-Chloro-biphen-2-yl]-7-fluoro-quinolin-6-yl]-1-cyclohexyl-1H-benzoimidazol-5-yl}-(4-hydroxy-piperidin-1-yl)-methanone]	89.6	91.9		
CSCC[C@H](NC(=O)c1ccc2c(c1)nc(-c1ccc3nc(-c4ccccc4)cnc3c1)n2C1CCCCC1)C(=O)O [Compound 515, 2-{[1-Cyclohexyl-2-(2-phenyl-quinoxalin-6-yl)-1H-benzoimidazole-5-carbonyl]-amino}-4-methylsulfanyl-butyric acid]	81.9	88.3		
O=C(N[C@@H](Cc1c[nH]c2ccc(O)cc12)C(=O)O)c1ccc2c(c1)nc(-c1ccc3cc(-c4ccccc4)cnc3c1)n2C1CCCCC1 [Compound 516, 2-{[1-cyclohexyl-2-(3-phenyl-quinolin-7-yl)-1H-benzoimidazole-5-carbonyl]-amino}-3-(5-hydroxy-1H-indol-3-yl)-propionic acid]	99.3	100		
CC(C)[C@H](NC(=O)c1ccc2c(c1)nc(-c1ccc3nc(-c4ccccc4)cnc3c1)n2C1CCCCC1)C(=O)O [Compound 517, 2-{[1-Cyclohexyl-2-(2-phenyl-quinoxalin-6-yl)-1H-benzoimidazole-5-carbonyl]-amino}-3-methyl-butyric acid]	81	97.8		
NC(=O)C[C@H](NC(=O)c1ccc2c(c1)nc(-c1ccc3nc(-c4ccccc4)cnc3c1)n2C1CCCCC1)C(=O)O [Compound 518, 2-{[1-Cyclohexyl-2-(2-phenyl-quinoxalin-6-yl)-1H-benzoimidazole-5-carbonyl]-amino}-succinamic acid]	76	97.8		
O=C(N[C@@H](Cc1ccc(O)cc1)C(=O)O)c1ccc2c(c1)nc(-c1ccc3nc(-c4ccccc4)cnc3c1)n2C1CCCCC1 [Compound 519, 2-{[1-Cyclohexyl-2-(2-phenyl-quinoxalin-6-yl)-1H-benzoimidazole-5-carbonyl]-amino}-3-(4-hydroxy-phenyl)-propionic acid]	96.9	99.1		
O=C(O)[C@@H]1Cc2ccccc2CN1C(=O)c1ccc2c(c1)nc(-c1ccc3nc(-c4ccccc4)cnc3c1)n2C1CCCCC1 [Compound 520, 2-[1-Cyclohexyl-2-(2-phenyl-quinoxalin-6-yl)-1H-benzoimidazole-5-carbonyl]-1,2,3,4-tetrahydro-isoquinoline-3-carboxylic acid]	94.8	98.9		
CN1CCN(C(=O)c2ccc3c(c2)nc(-c2cc4ccc(-c5ccccc5-c5ccc(Cl)cc5)nc4cc2F)n3C2CCCCC2)CC1 [Compound 521, {2-[2-(4′-Chloro-biphen-2-yl)-7-fluoro-quinolin-6-yl]-1-cyclohexyl-1H-benzoimidazol-5-yl}-(4-methyl-piperazin-1-yl)-methanone]	84.8	91.4		
CN1CCN(C(=O)c2ccc3c(c2)nc(-c2cc4ccc(-c5ccccc5-c5ccccc5)nc4cc2F)n3C2CCCCC2)CC1 [Compound 522, [2-(2-Biphen-2-yl-7-fluoro-quinolin-6-yl)-1-cyclohexyl-1H-benzoimidazol-5-yl]-(4-methyl-piperazin-1-yl)-methanone]	76.7	74.2		
N=C(N)NCCC[C@H](NC(=O)c1ccc2c(c1)nc(-c1ccc3nc(-c4ccccc4)cnc3c1)n2C1CCCCC1)C(=O)O [Compound 523, 2-{[1-Cyclohexyl-2-(2-phenyl-quinoxalin-6-yl)-1H-benzoimidazole-5-carbonyl]-amino}-5-guanidino-pentanoic acid]	87.1	95		
O=C(NCCS(=O)(=O)O)c1ccc2c(c1)nc(-c1ccc3nc(-c4ccccc4)cnc3c1)n2C1CCCCC1 [Compound 524]			74.09	93.58
COc1ccc(-c2ccc(Cl)cc2)c(-c2ccc3cc(-c4nc5cc(-c6nnn[nH]6)ccc5n4C4CCCCC4)ccc3n2)c1 [Compound 525, 2-(4′-chloro-4-methoxy-biphen-2-yl)-6-[1-cyclohexyl-5-(1H-tetrazol-5-yl)-1H-benzoimidazol-2-yl]-quinoline]	101	101		
O=C(O)c1ccc2cc(NC(=O)c3ccc4c(c3)nc(-c3ccc5nc(-c6ccccc6)cnc5c3)n4C3CCCCC3)ccc2c1 [Compound 526, 6-{[1-Cyclohexyl-2-(2-phenyl-quinoxalin-6-yl)-1H-benzoimidazole-5-carbonyl]-amino}-naphthalene-2-carboxylic acid]	96.8	99		
COc1ccc(-c2ccc(Cl)cc2)c(-c2ccc3cc(-c4nc5cc(C(=O)O)ccc5n4C(C)C)ccc3n2)c1 [Compound 527, 2-[2-(4′-chloro-4-methoxy-biphen-2-yl)-quinolin-6-yl]-1-isopropyl-1H-benzoimidazole-5-carboxylic acid]	99.4	101		
COc1ccc(-c2ccc(Cl)cc2)c(-c2ccc3cc(-c4nc5cc(C(=O)O)ccc5n4C4CC4)ccc3n2)c1 [Compound 528, 2-[2-(4′-chloro-4-methoxy-biphen-2-yl)-quinolin-6-yl]-1-cyclopropyl-1H-benzoimidazole-5-carboxylic acid]	100	101		
COc1ccc(-c2ccc(Cl)cc2)c(-c2ccc3cc(-c4nc5cc(C(=O)O)ccc5n4C4CCCC4)ccc3n2)c1 [Compound 529, 2-[2-(4′-chloro-4-methoxy-biphen-2-yl)-quinolin-6-yl]-1-cyclopentyl-1H-benzoimidazole-5-carboxylic acid]	99.2	99.8		
COc1ccc(-c2ccc(Cl)cc2)c(-c2ccc3cc(-c4nc5cc(C(=O)O)ccc5n4CC(C)C)ccc3n2)c1 [Compound 530, 2-[2-(4′-Chloro-4-methoxy-biphen-2-yl)-quinolin-6-yl]-1-isobutyl-1H-benzoimidazole-5-carboxylic acid]	98.2	98.2		
COc1ccc(-c2ccc(Cl)cc2)c(-c2ccc3cc(-c4nc5cc(C(=O)O)ccc5n4CC4CC4)ccc3n2)c1 [Compound 531, 2-[2-(4′-chloro-4-methoxy-biphen-2-yl)-quinolin-6-yl]-1-cyclopropylmethyl-1H-benzoimidazole-5-carboxylic acid]	100	99.3		
COc1ccc(-c2ccc(Cl)cc2)c(-c2ccc3cc(-c4nc5cc(C(=O)O)ccc5n4CCC(C)C)ccc3n2)c1 [Compound 532, 2-[2-(4′-chloro-4-methoxy-biphen-2-yl)-quinolin-6-yl]-1-(3-methyl-butyl)-1H-benzoimidazole-5-carboxylic acid]	99.6	98.8		
COc1ccc(-c2ccc(Cl)cc2)c(-c2ccc3cc(-c4nc5cc(C(=O)O)ccc5n4CCN(C)C)ccc3n2)c1 [Compound 533, 2-[2-(4′-chloro-4-methoxy-biphen-2-yl)-quinolin-6-yl]-1-(2-dimethylamino-ethyl)-1H-benzoimidazole-5-carboxylic acid]	56.8	89.8		
CCn1c(-c2ccc3nc(-c4cc(OC)ccc4-c4ccc(Cl)cc4)ccc3c2)nc2cc(C(=O)O)ccc21 [Compound 534, 2-[2-(4′-chloro-4-methoxy-biphen-2-yl)-quinolin-6-yl]-1-ethyl-1H-benzoimidazole-5-carboxylic acid]	90.1	101		
O=C(O)c1cnc2c(c1)nc(-c1ccc3nc(-c4cc(O)ccc4-c4ccc(Cl)cc4)ccc3c1)n2C1CCCCC1 [Compound 535, 2-[2-(4′-chloro-4-hydroxy-biphen-2-yl)-quinolin-6-yl]-3-cyclohexyl-3H-imidazo[4,5-b]pyridine-6-carboxylic acid]	101	100		
COc1ccc(-c2ccc(Cl)cc2)c(-c2ccc3cc(-c4[nH]c5cc(C(=O)O)ccc5c4C4CCCCC4)ccc3n2)c1 [Compound 536, 2-[2-(4′-Chloro-4-methoxy-biphen-2-yl)-quinolin-6-yl]-3-cyclohexyl-1H-indole-6-carboxylic acid]	97.5	98.9		
